Data published in patent US20100261736A1, “SUBSTITUTED BICYCLIC HETEROARYL COMPOUNDS FOR THE TREATMENT OF CARDIOVASCULAR DISEASE” (priority 2007, published 2010).

Target: T1, Prostacyclin receptors (IP receptors) of human thrombocyte membranes (Homo sapiens, UniProt P43119)
T1 construct: Thrombocyte membranes are obtained by centrifuging 50 ml of human blood
Test: Binding to prostacyclin receptors (IP receptors) of human thrombocyte membranes, 3H-Iloprost displacement
Details: 3 nM 3H-Iloprost, 60 min, room temperature
Method: B-1. Studies of Binding to Prostacyclin Receptors (IP Receptors) of Human Thrombocyte Membranes
Thrombocyte membranes are obtained by centrifuging 50 ml of human blood (Buffy coats with CDP Stabilizer, from Maco Pharma, Langen) for 20 min at 160×g. Remove the supernatant (platelet-rich plasma, PRP) and then centrifuge again at 2000×g for 10 min at room temperature. Resuspend the sediment in 50 mM tris(hydroxymethyl)aminomethane, which has been adjusted to a pH of 7.4 with 1 N hydrochloric acid, and store at −20° C. overnight. On the next day, centrifuge the suspension at 80 000×g and 4° C. for 30 min. Discard the supernatant. Resuspend the sediment in 50 mM tris(hydroxymethyl)aminomethane/hydrochloric acid, 0.25 mM ethylene diamine tetraacetic acid (EDTA), pH 7.4, and then centrifuge once again at 80 000×g and 4° C. for 30 min. Take up the membrane sediment in binding buffer (50 mM tris(hydroxymethyl)-aminomethane/hydrochloric acid, 5 mM magnesium chloride, pH 7.4) and store at −70° C. until the binding test.
For the binding test, incubate 3 nM ^3H-Iloprost (592 GBq/mmol, from AmershamBioscience) for 60 min with 300-1000 μg/ml of human thrombocyte membranes per charge (max. 0.2 ml) in the presence of the test substances at room temperature. After stopping, add cold binding buffer to the membranes and wash with 0.1% bovine serum albumin. After adding Ultima Gold Scintillator, quantify the radioactivity bound to the membranes using a scintillation counter. The nonspecific binding is defined as radioactivity in the presence of 1 μM Iloprost (from Cayman Chemical, Ann Arbor) and is as a rule <25% of the bound total radioactivity. The binding data (IC50 values) are determined using the program GraphPad Prism Version 3.02.

T1 sequence (P43119 whole entry): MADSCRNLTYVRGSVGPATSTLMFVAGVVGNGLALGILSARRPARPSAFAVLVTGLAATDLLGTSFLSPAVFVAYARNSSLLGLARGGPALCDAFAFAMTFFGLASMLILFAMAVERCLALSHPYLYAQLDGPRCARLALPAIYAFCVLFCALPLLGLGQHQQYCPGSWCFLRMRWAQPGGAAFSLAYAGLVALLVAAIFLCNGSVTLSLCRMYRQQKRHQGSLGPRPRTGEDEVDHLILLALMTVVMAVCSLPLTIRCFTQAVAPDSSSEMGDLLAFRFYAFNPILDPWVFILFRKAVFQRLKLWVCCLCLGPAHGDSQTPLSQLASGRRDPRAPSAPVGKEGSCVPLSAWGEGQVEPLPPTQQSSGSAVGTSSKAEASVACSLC

Row | Compound | IC50
1 | COc1ccc(-c2c(-c3ccccc3)[nH]c3ncnc(O[C@H](C)CCCCC(=O)O)c23)cc1 [Example 5, (6R)-6-{[5-(4-Methoxyphenyl)-6-phenyl-7H-pyrrolo[2,3-d]pyrimidin-4-yl]oxy}heptanoic acid] | 39 nM
2 | COc1ccc(-c2c(-c3ccccc3)oc3ccnc(NCC(C)(C)COCC(=O)O)c23)cc1 [Example 19, (3-{[3-(4-Methoxyphenyl)-2-phenylfuro[3,2-c]pyridin-4-yl]amino}-2,2-dimethylpropoxy)acetic acid] | 98 nM
3 | CCc1ccc(-c2c(-c3ccccc3)oc3nccc(OCCOCCC(=O)O)c23)cc1 [Example 29] | 1700 nM
4 | CCc1ccc(-c2c(-c3ccccc3)oc3nccc(NCC(C)(C)COCCC(=O)O)c23)cc1 [Example 21, 3-(3-{[3-(4-Ethylphenyl)-2-phenylfuro[2,3-b]pyridin-4-yl]amino}-2,2-dimethylpropoxy)-propanoic acid] | 35 nM
5 | CCc1ccc(-c2c(-c3ccccc3)oc3nccc(O[C@H](C)CCCCC(=O)O)c23)cc1 [Example 28, (6R)-6-{[3-(4-ethylphenyl)-2-phenylfuro[2,3-b]pyridin-4-yl]oxy}heptanoic acid] | 39 nM
6 | CCc1ccc(-c2c(-c3ccccc3)sc3ncnc(O[C@H](C)CCCCC(=O)O)c23)cc1 [Example 9, (6R)-6-{[5-(4-ethylphenyl)-6-phenylthieno[2,3-d]pyrimidin-4-yl]oxy}heptanoic acid] | 208 nM
7 | COc1ccc(-c2c(-c3ccccc3)oc3cccc(OCCCCCC(=O)O)c23)cc1 [Example 12, 6-{[3-(4-Methoxyphenyl)-2-phenyl-1-benzofuran-4-yl]oxy}hexanoic acid] | 984 nM

System: not given
Test: not given
Details: non-enzymatic transformation to inactive metabolite 6-keto-prostaglandin-F1alpha; cited from earlier work

Row | Compound | half-life
8 | CCCCC[C@H](O)/C=C/[C@@H]1[C@H]2C/C(=C/CCCC(=O)O)O[C@H]2C[C@H]1O [PGI2] | approx. 3 minutes
